In article PMC4467398, “Preclinical antitumor activity of ST7612AA1: a new oral thiol-based histone deacetylase (HDAC) inhibitor” (Oncotarget, 2014):

Test system: DOHH2 and TMD8 DLBCL cells
Experiment: Gene expression profiling (HumanHT-12 v4 BeadChip, limma), ST7612AA1 300 nM 8 hrs vs DMSO
Assay type: cell-based, human
Conditions: 300 nM 8 hrs

Compound: CC(=O)SCCCCC[C@H](NC(=O)[C@H]1CCC(=O)N1)C(=O)Nc1ccccc1 [ST7612AA1]
- AveExpr.ST7612 NOSIP (probe ILMN_1759436): 7.06E-01
- AveExpr.ST7612 NPC2 (probe ILMN_1716678): 8.44E-01
- AveExpr.ST7612 NPL (probe ILMN_1782070): 7.76E-01
- AveExpr.ST7612 NPL (probe ILMN_2149494): 8.88E-01
- AveExpr.ST7612 NQO2 (probe ILMN_1712918): 8.69E-01
- AveExpr.ST7612 NUB1 (probe ILMN_1665291): 7.20E-01
- AveExpr.ST7612 NUMB (probe ILMN_2331266): 7.27E-01
- AveExpr.ST7612 NXF1 (probe ILMN_1705783): 8.80E-01
- AveExpr.ST7612 NXF1 (probe ILMN_2358652): 7.18E-01
- AveExpr.ST7612 P704P (probe ILMN_1793950): 6.85E-01
- AveExpr.ST7612 PAQR8 (probe ILMN_1694589): 7.20E-01
- AveExpr.ST7612 PCYOX1 (probe ILMN_1679725): 7.89E-01
- AveExpr.ST7612 PDXK (probe ILMN_1672504): 8.94E-01
- AveExpr.ST7612 PECI (probe ILMN_2384536): 8.25E-01
- AveExpr.ST7612 PEX16 (probe ILMN_1745655): 7.84E-01
- AveExpr.ST7612 PIM2 (probe ILMN_1748283): 7.43E-01
- AveExpr.ST7612 PKIA (probe ILMN_2337974): 7.37E-01
- AveExpr.ST7612 PLD3 (probe ILMN_1666976): 8.81E-01
- AveExpr.ST7612 PMAIP1 (probe ILMN_2098446): 8.50E-01
- AveExpr.ST7612 PNKD (probe ILMN_1774604): 7.25E-01
- AveExpr.ST7612 PRDX2 (probe ILMN_1767766): 8.35E-01
- AveExpr.ST7612 PRDX2 (probe ILMN_2382829): 7.41E-01
- AveExpr.ST7612 PTGER4 (probe ILMN_1795930): 9.03E-01
- AveExpr.ST7612 PTTG1 (probe ILMN_1753196): 6.92E-01
- AveExpr.ST7612 RAB8B (probe ILMN_2173004): 8.71E-01
- AveExpr.ST7612 RAB24 (probe ILMN_2379718): 7.77E-01
- AveExpr.ST7612 RABGAP1 (probe ILMN_2061950): 6.86E-01
- AveExpr.ST7612 RAPGEF2 (probe ILMN_3247261): 8.54E-01
- AveExpr.ST7612 RASAL1 (probe ILMN_1793517): 7.10E-01
- AveExpr.ST7612 RASD2 (probe ILMN_2170209): 7.75E-01
- AveExpr.ST7612 REEP2 (probe ILMN_1666057): 6.85E-01
- AveExpr.ST7612 RFC1 (probe ILMN_2217935): 7.23E-01
- AveExpr.ST7612 RHBDD2 (probe ILMN_1809437): 7.80E-01
- AveExpr.ST7612 RHBDD2 (probe ILMN_2406410): 8.04E-01
- AveExpr.ST7612 RHOBTB3 (probe ILMN_1744949): 8.25E-01
- AveExpr.ST7612 RHOC (probe ILMN_1673305): 9.02E-01
- AveExpr.ST7612 RNASE4 (probe ILMN_1776602): 7.33E-01
- AveExpr.ST7612 RND2 (probe ILMN_1736533): 7.06E-01
- AveExpr.ST7612 RNF24 (probe ILMN_1717809): 7.24E-01
- AveExpr.ST7612 RTN2 (probe ILMN_1749115): 8.60E-01
- AveExpr.ST7612 RTN3 (probe ILMN_2363065): 7.08E-01
- AveExpr.ST7612 SBK1 (probe ILMN_1728298): 8.80E-01
- AveExpr.ST7612 SCARNA11 (probe ILMN_3236010): 6.95E-01
- AveExpr.ST7612 SCARNA13 (probe ILMN_3235325): 7.18E-01
- AveExpr.ST7612 SCARNA14 (probe ILMN_3247636): 7.31E-01
- AveExpr.ST7612 SDCBP (probe ILMN_2363586): 8.86E-01
- AveExpr.ST7612 SDCBP (probe ILMN_2363591): 8.22E-01
- AveExpr.ST7612 SDHAP2 (probe ILMN_3248781): 7.07E-01
- AveExpr.ST7612 SEMA4D (probe ILMN_1687533): 7.86E-01
- AveExpr.ST7612 SEMA4F (probe ILMN_1805007): 7.51E-01
- AveExpr.ST7612 SERPINB9 (probe ILMN_1742052): 7.55E-01
- AveExpr.ST7612 SERPINI1 (probe ILMN_1814333): 7.79E-01
- AveExpr.ST7612 SGK (probe ILMN_1702487): 8.82E-01
- AveExpr.ST7612 SH3GLB2 (probe ILMN_2158336): 6.85E-01
- AveExpr.ST7612 SLC23A2 (probe ILMN_1746578): 7.82E-01
- AveExpr.ST7612 SLC25A4 (probe ILMN_1681670): 8.53E-01
- AveExpr.ST7612 SLC25A4 (probe ILMN_2211780): 7.98E-01
- AveExpr.ST7612 SLC25A23 (probe ILMN_1679949): 7.04E-01
- AveExpr.ST7612 SLC44A2 (probe ILMN_1771987): 7.92E-01
- AveExpr.ST7612 SLC45A3 (probe ILMN_1726114): 7.11E-01
- AveExpr.ST7612 SLFN11 (probe ILMN_1752520): 7.62E-01
- AveExpr.ST7612 SNAP23 (probe ILMN_1687519): 8.74E-01
- AveExpr.ST7612 SNORD31 (probe ILMN_2072391): 7.85E-01
- AveExpr.ST7612 SORT1 (probe ILMN_1707077): 8.42E-01
- AveExpr.ST7612 SPAG9 (probe ILMN_2263718): 7.33E-01
- AveExpr.ST7612 SPINT2 (probe ILMN_1800739): 8.11E-01
- AveExpr.ST7612 SREBF1 (probe ILMN_1663035): 7.22E-01
- AveExpr.ST7612 SRGN (probe ILMN_1760347): 7.62E-01
- AveExpr.ST7612 SRGN (probe ILMN_2169152): 7.60E-01
- AveExpr.ST7612 STARD10 (probe ILMN_1717052): 8.01E-01
- AveExpr.ST7612 STK17B (probe ILMN_1798543): 7.91E-01
- AveExpr.ST7612 STMN3 (probe ILMN_3244117): 9.01E-01
- AveExpr.ST7612 STX3 (probe ILMN_1659544): 8.71E-01
- AveExpr.ST7612 SUSD3 (probe ILMN_1785570): 8.58E-01
- AveExpr.ST7612 TACC1 (probe ILMN_1770084): 7.64E-01
